Key:
ALT-positive cell lines = assay: CC EATR assay, C-circle content of cells treated with hydroxyurea, 96-well plates; type: cell-based, human; settings: high-throughput format, FIG. 14
Procedure: FIG. 14 depicts the detection of experimentally modulated ALT levels using the CC EATR assay. Treatment of cells with hydroxyurea (HU) decreases ALT levels. […] This experiment was performed in a high-throughput format in a 96-well plates.
For the fluorescence-based detection of RCA-mediated, CC-derived products (FIGS. 3 and 4, illustrating exonuclease digestion from the 5′ or 3′ terminus, respectively), 20 μL of each sample post-RCA (a single reaction per sample) was combined with 20 μL of 0.1 mg/ml BSA, 3 mM DTT, 0.05% Tween, 10 mM Bis-Tris-Propane-HCl, 10 mM MgCl2 (final pH 7.0 at 25 degrees C.), 2.5 U of Exonuclease III or 10 U of T7 Exonuclease (NEB), and 100 nM of (CCCTAA)2 probe labeled at the 5′ end with a 6-Carboxyfluorescein (FAM) fluorophore and a ZEN internal quencher (Integrated DNA Technologies) at the first T position. […] Fluorescence signals were collected using Applied Biosystems StepOnePlus Real-Time PCR system configured to acquire data from FAM/FITC filter sets and the reaction was run at 37° C. for 1 hour with signal being collected at 0 min and then every 15 min thereafter. […]
On day 0, passage 50 U2OS cells were seeded into a 10 cm plate, a 6 well plate, a 24 well plate and a 96 well plate at quantities of 5×10^5, 3×10^5, 1×10^4 and 1×10^4 per well respectively. […]

ALT-positive cells = settings: reported in the literature; cited from earlier work

NC(=O)NO [hydroxyurea]
C-circle content of ALT-positive cell lines after HU treatment (ALT-positive cell lines): significant decreases
ALT activity of ALT-positive cells upon treatment (ALT-positive cells): decreased ALT activity
